The values below are quoted from earlier work in US20180296814A1, “ADMINISTRATION OF DRUGS TO A PATIENT” (Progenity, Inc., priority 2010, published 2018).

The conditions of this data set: regional absorption in the intestinal tract, rats.

For salmon calcitonin, the “location of maximum absorption” value is on record as “ileum”.
